Assays:
[1] = biological target: isoleucine-tRNA synthase enzyme (Escherichia coli, UniProt P00956); conditions: affects the peptide synthesis of pathogen bacteria; cited from earlier work
[2] = both for humans and animals; cited from earlier work
[3] = system: Bacillus subtilis ATCC 6633; assay: agar diffusion microbial method; format: cell-based; conditions: beef-extract-peptone-glucose agar, pH 6.5, Bacillus subtilis ATCC 6633
Protocol: The antibacterial activity of the pseudomonic acid antibiotic complex is determined by agar diffusion microbial method. The medium is a beef-extract-peptone-glucose-containing agar, its pH is 6.5 and the test organism is Bacillus subtilis ATCC 6633.

Sequence of isoleucine-tRNA synthase enzyme (P00956 whole entry): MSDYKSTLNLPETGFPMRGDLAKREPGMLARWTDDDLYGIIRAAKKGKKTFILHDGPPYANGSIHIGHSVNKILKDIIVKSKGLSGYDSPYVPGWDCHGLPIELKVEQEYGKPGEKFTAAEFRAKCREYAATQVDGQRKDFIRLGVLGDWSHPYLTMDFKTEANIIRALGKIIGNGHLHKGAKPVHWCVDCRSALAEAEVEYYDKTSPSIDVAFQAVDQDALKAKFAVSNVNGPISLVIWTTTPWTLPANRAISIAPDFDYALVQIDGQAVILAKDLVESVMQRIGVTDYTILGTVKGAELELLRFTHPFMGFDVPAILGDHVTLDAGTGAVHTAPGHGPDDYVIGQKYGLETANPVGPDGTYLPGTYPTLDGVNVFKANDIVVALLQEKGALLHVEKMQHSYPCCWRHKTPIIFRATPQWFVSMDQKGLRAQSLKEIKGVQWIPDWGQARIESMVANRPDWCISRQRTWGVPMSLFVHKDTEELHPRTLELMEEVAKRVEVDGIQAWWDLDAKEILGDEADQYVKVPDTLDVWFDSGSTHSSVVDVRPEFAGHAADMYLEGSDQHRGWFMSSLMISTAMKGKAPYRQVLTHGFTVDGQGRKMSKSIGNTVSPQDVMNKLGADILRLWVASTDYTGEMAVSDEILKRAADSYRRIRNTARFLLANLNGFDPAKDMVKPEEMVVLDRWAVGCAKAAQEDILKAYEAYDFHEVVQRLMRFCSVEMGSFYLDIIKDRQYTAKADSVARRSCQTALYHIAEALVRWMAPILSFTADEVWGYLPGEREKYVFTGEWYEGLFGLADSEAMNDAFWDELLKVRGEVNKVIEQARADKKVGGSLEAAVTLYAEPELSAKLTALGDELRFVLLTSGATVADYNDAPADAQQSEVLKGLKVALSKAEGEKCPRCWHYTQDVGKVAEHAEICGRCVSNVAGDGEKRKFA

For `C/C(=C\C(=O)OCCCCCCCCC(=O)O)CC1OC[C@H](C[C@@H]2O[C@H]2[C@@H](C)[C@H](C)O)[C@@H](O)[C@H]1O` (stereo partly drawn) [Pseudomonic acid A, 9-{4[5S(2S,3S-epoxy-5S-hydroxy-4S-methylhexyl)-3R,4R-dihydroxy-tetrahydropyran-2S-yl]-3-methylbut-2(E)-enoyloxy}nonanoic acid], the “inhibition of isoleucine-tRNA synthase enzyme” value [1] is listed as “inhibiting” and the toxicity [2] is listed as “very low toxicity”.
With `C/C(=C\C(=O)OCCCCCCCCC(=O)O)CC1OC[C@](O)(C[C@@H]2O[C@H]2[C@@H](C)[C@H](C)O)[C@@H](O)[C@H]1O` (stereo partly drawn) [component B, pseudomonic acid B] the “specific activity against the test-microorganism relating to the component A” value [3] was “considerably weaker”.
